# Molecular target: ATX (Mus musculus (Mouse), UniProt Q9R1E6)
# Assay: Mice serum ATX inhibitory activity (IC50 determination)
# Type: biochemical
# Description: ATX Inhibitory activity was determined in a biochemical or whole blood assay as described previously (Bretschneider, T. et al., SLAS Discov 2017, 22, 425). The biochemical reaction consisted of 50 mM Tris (pH 8.0), 3 mM KCl, 1 mM CaCl2, 1 mM Mg Cl2, […] NaCl and 0.1% bovine serum albumin, which was supplemented with 5 nM recombinant rat ATX, 5 μM 18:1 LPC and the test compound (0.1-10 μM). The reaction was stopped at 2 h by the addition of butanol, prior to the RapidFire-MS-based analysis.
# The whole blood assay consisted of 45 μL μL heparinized mice/rat whole blood and the test compound (0.12-100 μM). The reaction was stopped after 1 h at 37° C. by addition of 100 μL 40 mM disodium hydrogen phosphate buffer containing 30 mM citric acid (pH 4) and 1 μM 17:0 LPA (internal standard). Afterwards the samples were treated a described above and analysed by LC-MS/MS. The data was analyzed using graph pad prism (v 7.03) to arrive at the half-maximal inhibitory concentrations (IC50) of the test compounds.
row,SMILES,IC50
1,"COc1ccc(C2CN(C)CC23CCN(C(=O)[C@H](NC(=O)c2cc(C)ccc2F)C(C)C)CC3)cc1 (stereo partly drawn) [Compound 123, 2-fluoro-N-((2R)-1-(4-(4-methoxyphenyl)-2-methyl-2,8-diazaspiro[4.5]decan-8-yl)-3-methyl-1-oxobutan-2-yl)-5-methylbenzamide]",9.3 nM
2,"Cc1ccnc(C(=O)N[C@@H](C(=O)N2CCC3(CC2)CN(C)CC3c2ccc(F)cc2)C(C)C)c1 (stereo partly drawn) [Compound 129, N-((2R)-1-(4-(4-fluorophenyl)-2-methyl-2,8-diazaspiro-[4.5]decan-8-yl)-3-methyl-1-oxobutan-2-yl)-4-methylpicolinamide]",3.4 nM
3,"COC(=O)N1CC(c2ccc(F)cc2)C2(CCN(C(=O)[C@H](NC(=O)c3cc(C(F)(F)F)ccc3F)C(C)C)CC2)C1 (stereo partly drawn) [Compound 130, methyl 8-((2-fluoro-5-(trifluoromethyl)benzoyl)-D-valyl)-4-(4-fluorophenyl)-2,8-diazaspiro[4.5]decane-2-carboxylate]",59.7 nM
4,"CCOC(=O)N1CC(c2ccc(F)cc2)C2(CCN(C(=O)[C@H](NC(=O)c3cc(C(F)(F)F)ccc3F)C(C)C)CC2)C1 (stereo partly drawn) [Compound 131, ethyl 8-((2-fluoro-5-(trifluoromethyl)benzoyl)-D-valyl)-4-(4-fluorophenyl)-2,8-diazaspiro[4.5]decane-2-carboxylate]",150 nM
5,"CC(C)[C@@H](NC(=O)c1cc(C(F)(F)F)ccc1F)C(=O)N1CCC2(CC1)CN(C)CC2c1ccc(C(=O)O)cc1 (stereo partly drawn) [Compound 132, 4-(8-((2-fluoro-5-(trifluoromethyl)benzoyl)-D-valyl)-2-methyl-2,8-diazaspiro[4.5]decan-4-yl)benzoic acid]",1.1 nM
6,"CC(C)[C@@H](NC(=O)c1cc(C(F)(F)F)ccc1F)C(=O)N1CCC2(CC1)CN(C)C[C@@H]2c1ccc(F)cc1 [Compound 133, 2-fluoro-N-((R)-1-((R)-4-(4-fluorophenyl)-2-methyl-2,8-diazaspiro[4.5]decan-8-yl)-3-methyl-1-oxobutan-2-yl)-5-(trifluoromethyl)benzamide]",12 nM
7,"CC(C)[C@@H](NC(=O)c1cc(C(F)(F)F)ccc1F)C(=O)N1CCC2(CC1)CN(C)C[C@H]2c1ccc(F)cc1 [Compound 134, 2-fluoro-N-((R)-1-((S)-4-(4-fluorophenyl)-2-methyl-2,8-diazaspiro[4.5]decan-8-yl)-3-methyl-1-oxobutan-2-yl)-5-(trifluoromethyl)benzamide]",7.8 nM
8,"Cc1ccc(C2CN(C)CC23CCN(C(=O)[C@H](NC(=O)c2cc(C(F)(F)F)ccc2F)C(C)C)CC3)cc1 (stereo partly drawn) [Compound 136, 2-fluoro-N-((2R)-3-methyl-1-(2-methyl-4-(p-tolyl)-2,8-diazaspiro[4.5]decan-8-yl)-1-oxobutan-2-yl)-5-(trifluoromethyl)benzamide]",2.2 nM
9,"Cc1cc(C)cc(C2CN(C)CC23CCN(C(=O)[C@H](NC(=O)c2cc(C(F)(F)F)ccc2F)C(C)C)CC3)c1 (stereo partly drawn) [Compound 138, N-((2R)-1-(4-(3,5-dimethylphenyl)-2-methyl-2,8-diazaspiro[4.5]decan-8-yl)-3-methyl-1-oxobutan-2-yl)-2-fluoro-5-(trifluoromethyl)benzamide]",40.4 nM
10,"CN1CC(c2ccc(F)cc2)C2(CCN(C(=O)[C@H](NC(=O)c3cc(C(F)(F)F)ccc3F)c3ccccc3)CC2)C1 (stereo partly drawn) [Compound 140, 2-fluoro-N-((1R)-2-(4-(4-fluorophenyl)-2-methyl-2,8-diazaspiro[4.5]decan-8-yl)-2-oxo-1-phenylethyl)-5-(trifluoromethyl)benzamide]",11.5 nM
11,"CN1CC(c2ccc(F)cc2)C2(CCN(C(=O)[C@H](NC(=O)c3cc(C(F)(F)F)ccc3F)C3CCCCC3)CC2)C1 (stereo partly drawn) [Compound 142, N-((1R)-1-cyclohexyl-2-(4-(4-fluorophenyl)-2-methyl-2,8-diazaspiro[4.5]decan-8-yl)-2-oxoethyl)-2-fluoro-5-(trifluoromethyl)benzamide]",4.4 nM
12,"CC(C)C[C@@H](NC(=O)c1cc(C(F)(F)F)ccc1F)C(=O)N1CCC2(CC1)CN(C)CC2c1ccc(F)cc1 (stereo partly drawn) [Compound 147, 2-fluoro-N-((2R)-1-(4-(4-fluorophenyl)-2-methyl-2,8-diazaspiro[4.5]decan-8-yl)-4-methyl-1-oxopentan-2-yl)-5-(trifluoromethyl)benzamide]",4.1 nM
13,"CC(C)[C@@H](NC(=O)c1cc(F)ccc1F)C(=O)N1CCC2(CC1)CN(C)CC2c1ccc(F)cc1 (stereo partly drawn) [Compound 149, 2,5-difluoro-N-((2R)-1-(4-(4-fluorophenyl)-2-methyl-2,8-diazaspiro[4.5]decan-8-yl)-3-methyl-1-oxobutan-2-yl)benzamide]",47.3 nM
14,"CC(C)[C@@H](NC(=O)c1cc(Cl)ccc1Cl)C(=O)N1CCC2(CC1)CN(C)CC2c1ccc(F)cc1 (stereo partly drawn) [Compound 151, 2,5-dichloro-N-((2R)-1-(4-(4-fluorophenyl)-2-methyl-2,8-diazaspiro[4.5]decan-8-yl)-3-methyl-1-oxobutan-2-yl)benzamide]",130 nM
15,"CC(C)[C@@H](NC(=O)c1nn(C)c2ccccc12)C(=O)N1CCC2(CC1)CN(C)CC2c1ccc(F)cc1 (stereo partly drawn) [Compound 153, N-((2R)-1-(4-(4-fluorophenyl)-2-methyl-2,8-diazaspiro[4.5]decan-8-yl)-3-methyl-1-oxobutan-2-yl)-1-methyl-1H-indazole-3-carboxamide]",48.4 nM
16,"Cc1ccnc(C(=O)N[C@@H](C(=O)N2CCC3(CC2)CN(C)CC3c2cccnc2)C(C)C)c1 (stereo partly drawn) [Compound 162, 4-methyl-N-((2R)-3-methyl-1-(2-methyl-4-(pyridin-3-yl)-2,8-diazaspiro[4.5]decan-8-yl)-1-oxobutan-2-yl)picolinamide]",10.2 nM
17,"CC(C)[C@@H](NC(=O)c1cc(C(F)(F)F)ccc1F)C(=O)N1CCC2(CC1)CC(=O)NCC2c1ccccc1 (stereo partly drawn) [Compound 163, 2-fluoro-N-((2R)-3-methyl-1-oxo-1-(10-oxo-7-phenyl-3,9-diazaspiro[5.5]undecan-3-yl)butan-2-yl)-5-(trifluoromethyl)benzamide]",3.5 nM
18,"CC(C)[C@@H](NC(=O)c1cc(C(F)(F)F)ccc1F)C(=O)N1CCC2(CC1)CC(=O)NCC2c1ccc(F)cc1 (stereo partly drawn) [Compound 164, 2-fluoro-N-((2R)-1-(7-(4-fluorophenyl)-10-oxo-3,9-diazaspiro[5.5]undecan-3-yl)-3-methyl-1-oxobutan-2-yl)-5-(trifluoromethyl)benzamide]",6.5 nM
19,"CC(C)[C@@H](NC(=O)c1cc(C(F)(F)F)ccc1F)C(=O)N1CCC2(CC1)CC(=O)N(C)CC2c1ccccc1 (stereo partly drawn) [Compound 174, 2-fluoro-N-((2R)-3-methyl-1-(9-methyl-10-oxo-7-phenyl-3,9-diazaspiro[5.5]undecan-3-yl)-1-oxobutan-2-yl)-5-(trifluoromethyl)benzamide]",11.2 nM
20,"CC(C)[C@@H](NC(=O)c1cc(C(F)(F)F)ccc1F)C(=O)N1CCC2(CC1)CC(=O)N(C)CC2c1ccc(F)cc1 (stereo partly drawn) [Compound 176, 2-fluoro-N-((2R)-1-(7-(4-fluorophenyl)-9-methyl-10-oxo-3,9-diazaspiro[5.5]undecan-3-yl)-3-methyl-1-oxobutan-2-yl)-5-(trifluoromethyl)benzamide]",7.5 nM
21,"CCN1CC(c2ccc(F)cc2)C2(CCN(C(=O)[C@H](NC(=O)c3cc(C(F)(F)F)ccc3F)C(C)C)CC2)CC1=O (stereo partly drawn) [Compound 177, N-((2R)-1-(9-ethyl-7-(4-fluorophenyl)-10-oxo-3,9-diazaspiro[5.5]undecan-3-yl)-3-methyl-1-oxobutan-2-yl)-2-fluoro-5-]",17.2 nM
